≈ marks a conversion by molar mass, not a printed value.
Columns and labels:
[1] = Thermodynamic aqueous solubility; type: physicochemical; conditions: 2 h
Description: Saturated solutions were prepared by dissolving the tested compounds in 0.1 M phosphate-buffered saline (pH = 7.4) or 0.01 N HCl solutions and sonicated for 30 s. After equilibration on an orbital shaker at 25 °C for 2 h, the solutions were centrifuged at 13 000 rpm for 5 min and filtered through a 0.2 μm regenerated cellulose (RC) syringe filter. A 400 μL aliquot of each filtrate was diluted with 100 μL of acetonitrile and analyzed by LC-UV. When the measured peak area was out of the calibration range (5–100 μM), the sample was further diluted in water–acetonitrile 1:1 mixture.

[2] = target: T1, BRD4 (Homo sapiens, UniProt O60885); assay: BRD4 degradation by Western blot analysis in MDA-MB-231 cells; type: cell-based; conditions: for dose-response of BRD4 degradation (in words): 100 nM to 10 μM; for effect of cotreatment with proteasome inhibitor bortezomib on BRD4 degradation: 1 μM compound + 5 nM bortezomib; for BRD4 degradation in time-course experiments (in words) / Densitometry (% of control), BRD4-immunoreactive band relative to DMSO vehicle: 1 μM; for BRD4 degradation in time-course experiments (in words): 4 up to 24 h
T1 construct: endogenous in cells; host or cells: MDA-MB-231
Description: In Vitro Biological Validation of PROTACs and Preliminary Assessment of Thermodynamic Aqueous Solubility and Metabolic Stability of Selected BRD4-Degrading PROTACs. With the aim of proving the utility of our platform and the compatibility of the substructures accessible by the MCR strategy with a proximity-based degradation, the ability of our PROTAC candidates to effectively act as BRD4 degraders was tested in the human breast cancer cell line MDA-MB-231, known to express detectable levels of this protein.
The human breast adenocarcinoma MDA-MB-231 cell line was cultured in DMEM (Sigma-Aldrich) supplemented with 10% fetal bovine serum (FBS), 1% glutamine, and 1% penicillin/streptomycin. For Western blot analysis, […] cells/well were plated into 12-well plates containing DMEM complete growth medium, to be treated with the synthesized compounds, at the indicated concentrations, for different time lengths. After treatments, cells were scraped and lysed to obtain protein extract using RIPA lysis buffer supplemented with protease (PIC, Merck-Millipore) and phosphatase inhibitors (NaF 1 M, Na3VO4 1 M, PMSF […], Sigma-Aldrich). Cells lysates were centrifuged at 13 000 rpm for 10 min at 4 °C to remove membranes and insoluble fractions. Protein quantification of the supernatant fraction was performed with Braford protein assay (Sigma-Aldrich). […] aliquots of protein extracts were used for 12% SDS-PAGE. After transfer into nitrocellulose membranes, BRD4 and tubulin protein levels were evaluated by immunoblotting using a rabbit polyclonal anti-BRD4 (Bethyl Laboratories) and a mouse monoclonal α-tubulin (Sigma-Aldrich) IgG as primary antibodies and an antirabbit or antimouse HRP-conjugated secondary antibody (Bio-Rad Laboratories). Protein levels were detected by chemiluminescent conversion of the HRP substrate LumiGLO (Thermo Fisher Scientific) using the ChemiDoc imaging system (Bio-Rad). Band densitometry was assessed, normalized to α-tubulin immunoreactive bands, and reported as percentage of the 0.3% DMSO control lane.

[3] = 0.01 N HCl solution, HCl 0.01 N, pH 2.0, 25 °C
[4] = phosphate-buffered saline, PBS 0.1 M, pH 7.4, 25 °C
[5] = 8 h treatment, MDA-MB-231 cells, from Western blot densitometry

| SMILES | melting point | solubility thermodynamic at 2 h [1, 3] [µM] | solubility thermodynamic at 2 h [1, 4] [µM] | dose-response of BRD4 degradation (in words) ([2]; 8 h, MDA-MB-231 cells) | effect of cotreatment with proteasome inhibitor bortezomib on BRD4 degradation ([2]; 8 h) | BRD4 degradation in time-course experiments (in words) ([2]; MDA-MB-231 cells) | DC50 [2, 5] [nM] | Dmax ([2]; 8 h treatment, MDA-MB-231 cells, from Western blot densitometry, read-out: Dmax (maximal % of reduction toward DMSO control lane)) [%] | concentration of maximal BRD4 degradation ([2]; dose-response 100 nM to 10 μM, 8 h, MDA-MB-231 cells) [nM] | Densitometry (% of control), BRD4-immunoreactive band relative to DMSO vehicle ([2]; 4 h, MDA-MB-231 cells) | Densitometry (% of control), BRD4-immunoreactive band relative to DMSO vehicle ([2]; 8 h, MDA-MB-231 cells) | Densitometry (% of control), BRD4-immunoreactive band relative to DMSO vehicle ([2]; 16 h, MDA-MB-231 cells) | Densitometry (% of control), BRD4-immunoreactive band relative to DMSO vehicle ([2]; 24 h, MDA-MB-231 cells) |
| --- | --- | --- | --- | --- | --- | --- | --- | --- | --- | --- | --- | --- | --- |
| Cc1sc2c(c1C)C(c1ccc(Cl)cc1)=N[C@@H](CC(=O)NCC(=O)NCCCOc1cccc3c1C(=O)N(C1CCC(=O)NC1=O)C3=O)c1nnc(C)n1-2 (stereo partly drawn) [Compound 27, 2-((S)-4-(4-Chlorophenyl)-2,3,9-trimethyl-6H-thieno[3,2-f][1,2,4]triazolo[4,3-a][1,4]diazepin-6-yl)-N-(2-((3-((2-(2,6-dioxopiperidin-3-yl)-1,3-dioxoisoindolin-4-yl)oxy)propyl)amino)-2-oxoethyl)acetamide] | 221.3 to 223.6 °C (dec.) | 145 (≈ 112 µg/mL) | 48 (≈ 37 µg/mL) | showed dose-dependency | abolish BRD4 degradation | decreased expression of BRD4 at all the time-points tested | 97.1 | 88 | – | – | – | – | – |
| Cc1sc2c(c1C)C(c1ccc(Cl)cc1)=N[C@@H](CC(=O)N1CCN(CC(=O)NCCCCCOc3cccc4c3C(=O)N(C3CCC(=O)NC3=O)C4=O)CC1)c1nnc(C)n1-2 (stereo partly drawn) [Compound 34, 2-(4-(2-((S)-4-(4-Chlorophenyl)-2,3,9-trimethyl-6H-thieno[3,2-f][1,2,4]triazolo[4,3-a][1,4]diazepin-6-yl)acetyl)piperazin-1-yl)-N-(5-((2-(2,6-dioxopiperidin-3-yl)-1,3-dioxoisoindolin-4-yl)oxy)pentyl)acetamide] | 194.8 to 196.8 °C (dec.) | 5070 (≈ 4410 µg/mL) | 11 (≈ 9.55 µg/mL) | showed the well-known “hook effect” | abolish BRD4 degradation | decreased expression of BRD4 at all the time-points tested | 60 | – | 300 | – | – | – | – |
| Cc1ncsc1-c1ccc(CNC(=O)[C@@H]2C[C@@H](O)CN2C(=O)[C@@H](NC(=O)CCCNC(=O)CN2CCN(C(=O)C[C@@H]3N=C(c4ccc(Cl)cc4)c4c(sc(C)c4C)-n4c(C)nnc43)CC2)C(C)(C)C)cc1 [Compound 47, (2S,4R)-1-((S)-2-(4-(2-(4-(2-((S)-4-(4-Chlorophenyl)-2,3,9-trimethyl-6H-thieno[3,2-f][1,2,4]triazolo[4,3-a][1,4]diazepin-6-yl)acetyl)piperazin-1-yl)acetamido)butanamido)-3,3-dimethylbutanoyl)-4-hydroxy-N-(4-(4-methylthiazol-5-yl)benzyl)pyrrolidine-2-carboxamide] | 164.3 to 165.5 °C | – | – | – | – | – | – | – | – | 50 % of control | 65,6 % of control | – | – |
| Cc1ncsc1-c1ccc(CNC(=O)[C@@H]2C[C@@H](O)CN2C(=O)[C@@H](NC(=O)CNC(=O)CN2CCN(C(=O)C[C@@H]3N=C(c4ccc(Cl)cc4)c4c(sc(C)c4C)-n4c(C)nnc43)CC2)C(C)(C)C)cc1 [Compound 46, (2S,4R)-1-((S)-2-(2-(2-(4-(2-((S)-4-(4-Chlorophenyl)-2,3,9-trimethyl-6H-thieno[3,2-f][1,2,4]triazolo[4,3-a][1,4]diazepin-6-yl)acetyl)piperazin-1-yl)acetamido)acetamido)-3,3-dimethylbutanoyl)-4-hydroxy-N-(4-(4-methylthiazol-5-yl)benzyl)pyrrolidine-2-carboxamide] | 183.3 to 184.8 °C | – | – | – | – | – | – | – | – | 61,7 % of control | 135 % of control | – | – |
| Cc1sc2c(c1C)C(c1ccc(Cl)cc1)=N[C@@H](CC(=O)N1CCN(CC(=O)NCCCCOc3cccc4c3C(=O)N(C3CCC(=O)NC3=O)C4=O)CC1)c1nnc(C)n1-2 (stereo partly drawn) [Compound 33, 2-(4-(2-((S)-4-(4-Chlorophenyl)-2,3,9-trimethyl-6H-thieno[3,2-f][1,2,4]triazolo[4,3-a][1,4]diazepin-6-yl)acetyl)piperazin-1-yl)-N-(4-((2-(2,6-dioxopiperidin-3-yl)-1,3-dioxoisoindolin-4-yl)oxy)butyl)acetamide] | 229.4 to 230 °C (dec.) | – | – | degradation was observed only at 1 and 3 μM concentrations | abolish BRD4 degradation | able to induce BRD4 degradation, although the onset of this effect was delayed (after 8 h) | 89.9 | – | – | 51,8 % of control | 23,1 % of control | 17,4 % of control | 24,4 % of control |
| Cc1sc2c(c1C)C(c1ccc(Cl)cc1)=N[C@@H](CC(=O)NCC(=O)NCCCCOc1cccc3c1C(=O)N(C1CCC(=O)NC1=O)C3=O)c1nnc(C)n1-2 (stereo partly drawn) [Compound 28, 2-((S)-4-(4-Chlorophenyl)-2,3,9-trimethyl-6H-thieno[3,2-f][1,2,4]triazolo[4,3-a][1,4]diazepin-6-yl)-N-(2-((4-((2-(2,6-dioxopiperidin-3-yl)-1,3-dioxoisoindolin-4-yl)oxy)butyl)amino)-2-oxoethyl)acetamide] | 231.9 to 232.6 °C (dec.) | 48 (≈ 37.7 µg/mL) | 17 (≈ 13.3 µg/mL) | – | – | – | – | – | – | – | – | – | – |
| Cc1sc2c(c1C)C(c1ccc(Cl)cc1)=N[C@@H](CC(=O)N(C)CC(=O)NCCCCCOc1cccc3c1C(=O)N(C1CCC(=O)NC1=O)C3=O)c1nnc(C)n1-2 (stereo partly drawn) [Compound 24, 2-((S)-4-(4-Chlorophenyl)-2,3,9-trimethyl-6H-thieno[3,2-f][1,2,4]triazolo[4,3-a][1,4]diazepin-6-yl)-N-(2-((5-((2-(2,6-dioxopiperidin-3-yl)-1,3-dioxoisoindolin-4-yl)oxy)pentyl)amino)-2-oxoethyl)-N-methylacetamide] | 175.2 to 176.8 °C (dec.) | – | – | – | – | – | – | – | – | 82,6 % of control | 32,0 % of control | 64,9 % of control | 26,4 % of control |
| Cc1sc2c(c1C)C(c1ccc(Cl)cc1)=N[C@@H](CC(=O)N(C)CC(=O)NCCCOc1cccc3c1C(=O)N(C1CCC(=O)NC1=O)C3=O)c1nnc(C)n1-2 (stereo partly drawn) [Compound 22, 2-((S)-4-(4-Chlorophenyl)-2,3,9-trimethyl-6H-thieno[3,2-f][1,2,4]triazolo[4,3-a][1,4]diazepin-6-yl)-N-(2-((3-((2-(2,6-dioxopiperidin-3-yl)-1,3-dioxoisoindolin-4-yl)oxy)propyl)amino)-2-oxoethyl)-N-methylacetamide] | 211.5 to 213.8 °C (dec.) | – | – | – | – | – | – | – | – | 69,5 % of control | 35,6 % of control | 116,7 % of control | 50,6 % of control |
| Cc1sc2c(c1C)C(c1ccc(Cl)cc1)=N[C@@H](CC(=O)N(C)CC(=O)NCCOCCOCCOc1cccc3c1C(=O)N(C1CCC(=O)NC1=O)C3=O)c1nnc(C)n1-2 (stereo partly drawn) [Compound 26, 2-((S)-4-(4-Chlorophenyl)-2,3,9-trimethyl-6H-thieno[3,2-f][1,2,4]triazolo[4,3-a][1,4]diazepin-6-yl)-N-(2-((2-(2-(2-((2-(2,6-dioxopiperidin-3-yl)-1,3-dioxoisoindolin-4-yl)oxy)ethoxy)ethoxy)ethyl)amino)-2-oxoethyl)-N-methylacetamide] | 152.5 to 153.5 °C (dec.) | – | – | – | – | – | – | – | – | 106,3 % of control | 65,4 % of control | 128,9 % of control | 70,9 % of control |
